Laboratory results reported in US20240199618A1, “NOVEL N-ACYL-[3-SUBSTITUTED]-[8-SUBSTITUTED]-5,6-DIHYDRO-[1,2,4]TRIAZOLO[4,3-a]PYRAZINES AS SELECTIVE NK-3 RECEPTOR ANTAGONISTS, PHARMACEUTICAL COMPOSITION, METHODS FOR USE IN NK-3 RECEPTOR-MEDIATED DISORDERS” (Ogeda SA, priority 2013, published 2024).
Like-named read-outs stand apart in the source and are kept apart here.

Experiments:
human NK-1 receptor = human NK-1 receptor (Homo sapiens (Human), UniProt P25103); assay: Selectivity assay: [3H] substance P binding, human NK-1 receptor; conditions: 2 nM [3H] substance P, CHO membranes; read-out: hNK-1 (Ki)
Description: Selectivity of the compounds of the invention was determined over the other human NK receptors, namely NK-1 and NK-2 receptors.
The affinity of compounds of the invention for the NK-1 receptor was evaluated in CHO recombinant cells which express the human NK-1 receptor. Membrane suspensions were prepared from these cells. The following radioligand: [^3H] substance P (PerkinElmer Cat #NET111520) was used in this assay. Binding assays were performed in a 50 mM Tris/5 mM MnCl2/150 mM NaCl/0.1% BSA at pH 7.4. Binding assays consisted of 25 μl of membrane suspension (approximately 5 μg of protein/well in a 96 well plate), 50 μl of compound or reference ligand (Substance P) at increasing concentrations (diluted in assay buffer) and 2 nM [^3H] substance P. The plate was incubated 60 min at 25° C. in a water bath and then filtered over GF/C filters (Perkin Elmer, 6005174, presoaked in 0.5% PEI for 2 h at room temperature) with a Filtration unit (Perkin Elmer). The radioactivity retained on the filters was measured by using the TopCount-NXT reader (Packard).

plasma protein = assay: Determination of plasma protein binding (equilibrium dialysis, RED); assay type: in vitro ADME; conditions: 4 hours at 37° C.
Text: Determination of plasma protein binding The pharmacokinetic and pharmacodynamic properties of chemicals/drugs are largely a function of the reversible binding of chemicals to plasma or serum proteins. […] Consequently, the extent of the plasma protein binding (PPB) of a compound influences its action as well as its distribution and elimination.
The determination of plasma protein binding (PPB) of a compound is enabled by equilibrium dialysis, an accepted and standard method for reliable estimation of the non-bound drug fraction in plasma. RED (Rapid Equilibrium Dialysis) device insert is made of two side-by-side chambers separated by an O-ring-sealed vertical cylinder of dialysis membrane (MWCO ˜8,000). […] After 4 hours incubation at 37° C. under shaking, an aliquot is removed from each chamber and analyzed by a LC-MS/MS procedure enables the determination of both free and bound drug.
The “free fraction” may be calculated as 100%−% rPPB (i.e. the complementary percentage of that disclosed in Table 4, corresponding to the drug concentration that is unbound and therefore available to engage biological target and elicit pharmacological activity).

human NK-2 receptor = human NK-2 receptor (Homo sapiens (Human), UniProt P21452); assay: Selectivity assay: [125I]-Neurokinin A binding, human NK-2 receptor; conditions: 0.1 nM [125I]-Neurokinin A, CHO membranes; read-out: hNK-2 (Ki)
Description: The affinity of compounds of the invention for the NK-2 receptor was evaluated in CHO recombinant cells which express the human NK-2 receptor. Membrane suspensions were prepared from these cells. […] Binding assays were performed in a 25 mM HEPES/1 mM CaCl2)/5 mM MgCl2/0.5% BSA/10 μg/ml saponin, at pH 7.4. […] The radioactivity retained on the filters was measured by using the TopCount-NXT reader (Packard).

human NK-3 receptor [1] = biological target: T1, human NK-3 receptor (Homo sapiens (Human), UniProt P29371); assay: Aequorin functional assay with human NK-3 receptor (antagonist testing vs NKA); assay type: cell-based; conditions: CHO cells, NKA at EC80 (3 nM); read-out: Functional assay: Aequorin assay with human NK-3 receptor hNK-3-AEQ (antagonist IC50)
Description: Aequorin Assay with Human NK-3 Receptor
Changes in intracellular calcium levels are a recognized indicator of G protein-coupled receptor activity. The efficacy of compounds of the invention to inhibit NKA-mediated NK-3 receptor activation was assessed by an in vitro Aequorin functional assay. Chinese Hamster Ovary recombinant cells expressing the human NK-3 receptor and a construct that encodes the photoprotein apoaequorin were used for this assay. In the presence of the cofactor coelenterazine, apoaequorin emits a measurable luminescence that is proportional to the amount of intracellular (cytoplasmic) free calcium.
The antagonist activity of compounds of the invention is measured following pre-incubation (3 minutes) of the compound (at various concentrations) with the cells, followed by addition of the reference agonist (NKA) at a final concentration equivalent to the EC80 (3 nM) and recording of emitted light (FDSS 6000 Hamamatsu) over the subsequent 90-second period. The intensity of the emitted light is integrated using the reader software. Compound antagonist activity is measured based on the concentration-dependent inhibition of the luminescence response to the addition of Neurokinin A.

human NK-3 receptor [2] = biological target: T1, human NK-3 receptor; assay: 3H-SB222200 binding competition assay with human NK-3 receptor
Description: The affinity of compounds of the invention for the human NK-3 receptor was determined by measuring the ability of compounds of the invention to competitively and reversibly displace a well-characterized NK-3 radioligand in a concentration-dependent manner.
^3H-SB222200 Binding Competition Assay with Human NK-3 Receptor
Membranes were prepared from Chinese hamster ovary recombinant cells stably expressing the human NK-3 receptor. The membranes were incubated with 5 nM ^3H-SB222200 (ARC) in a HEPES 25 mM/NaCl 0.1M/CaCl2 1 mM/MgCl2 5 mM/BSA 0.5%/Saponin 10 μg/ml buffer at pH 7.4 and various concentrations of compounds of the invention. The amount of ^3H-SB222200 bound to the receptor was determined after filtration by the quantification of membrane associated radioactivity using the TopCount-NXT reader (Packard).

[3] = Table 2, 5 nM 3H-SB222200, CHO membranes, read-out: Competitive binding assay with human NK-3 receptor hNK-3 (Ki)
[4] = Table 3 (selectivity table), read-out: hNK-3 (Ki)

human NK-2 receptor, sequence (P21452 whole entry): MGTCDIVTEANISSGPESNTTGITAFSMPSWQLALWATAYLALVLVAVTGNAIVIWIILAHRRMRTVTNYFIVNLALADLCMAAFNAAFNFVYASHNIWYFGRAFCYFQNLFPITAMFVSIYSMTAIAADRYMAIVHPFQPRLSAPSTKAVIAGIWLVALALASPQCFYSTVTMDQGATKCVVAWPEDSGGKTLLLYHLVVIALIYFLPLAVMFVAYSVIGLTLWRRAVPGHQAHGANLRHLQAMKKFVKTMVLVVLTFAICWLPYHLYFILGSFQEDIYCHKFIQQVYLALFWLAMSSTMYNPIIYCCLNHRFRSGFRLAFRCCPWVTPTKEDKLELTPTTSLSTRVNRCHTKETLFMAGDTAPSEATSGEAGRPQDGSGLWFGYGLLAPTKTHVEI
human NK-1 receptor, sequence (P25103 whole entry): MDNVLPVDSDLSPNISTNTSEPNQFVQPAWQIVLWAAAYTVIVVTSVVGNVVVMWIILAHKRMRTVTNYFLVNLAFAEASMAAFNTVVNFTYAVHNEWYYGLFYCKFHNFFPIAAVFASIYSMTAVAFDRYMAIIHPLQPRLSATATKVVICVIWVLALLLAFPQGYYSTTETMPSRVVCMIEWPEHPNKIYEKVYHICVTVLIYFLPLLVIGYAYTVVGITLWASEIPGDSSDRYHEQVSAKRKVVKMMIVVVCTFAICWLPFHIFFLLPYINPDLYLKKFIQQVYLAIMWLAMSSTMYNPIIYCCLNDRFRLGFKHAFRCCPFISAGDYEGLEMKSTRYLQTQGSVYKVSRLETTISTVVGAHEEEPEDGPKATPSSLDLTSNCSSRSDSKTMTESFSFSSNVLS
T1 sequence (P29371 whole entry): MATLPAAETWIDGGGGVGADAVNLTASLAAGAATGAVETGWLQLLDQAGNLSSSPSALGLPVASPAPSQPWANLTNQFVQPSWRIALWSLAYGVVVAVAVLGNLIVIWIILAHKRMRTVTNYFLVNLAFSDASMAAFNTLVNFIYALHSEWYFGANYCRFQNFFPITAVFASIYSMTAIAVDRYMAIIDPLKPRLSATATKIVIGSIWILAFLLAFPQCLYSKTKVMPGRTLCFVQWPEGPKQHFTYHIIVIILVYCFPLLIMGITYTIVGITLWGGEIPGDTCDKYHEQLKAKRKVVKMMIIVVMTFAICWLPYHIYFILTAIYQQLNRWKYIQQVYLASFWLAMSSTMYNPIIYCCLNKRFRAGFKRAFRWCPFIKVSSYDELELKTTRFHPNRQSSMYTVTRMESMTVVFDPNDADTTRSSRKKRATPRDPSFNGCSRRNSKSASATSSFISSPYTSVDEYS

Ki (human NK-1 receptor) [µM]	Exposure (% rPPB), bound drug fraction to plasma protein (plasma protein) [%]	Ki (human NK-2 receptor) [µM]	IC50 (human NK-3 receptor [1]) [µM]	Ki (human NK-3 receptor [2]; [3]) [µM]	Ki (human NK-3 receptor [2]; [4]) [µM]	Structure (SMILES)
> 30	21	> 30	0.057	0.042	0.042	Cc1nsc(-c2nnc3n2CCN(C(=O)c2ccc(F)cc2)C3C)n1 (racemic) [Compound 14, (4-fluorophenyl)(8-methyl-3-(3-methyl-1,2,4-thiadiazol-5-yl)-5,6-dihydro-[1,2,4]triazolo[4,3-a]pyrazin-7(8H)-yl)methanone]
–	34	–	–	–	–	CCC1c2nnc(-c3nc(C)ns3)n2CCN1C(=O)c1ccc(F)cc1 (racemic) [Compound 23, (8-ethyl-3-(3-methyl-1,2,4-thiadiazol-5-yl)-5,6-dihydro-[1,2,4]triazolo[4,3-a]pyrazin-7(8H)-yl)(4-fluorophenyl)methanone]
> 30	31	> 30	0.064	0.07	0.07	Cc1nsc(-c2nnc3n2CCN(C(=O)c2cc(F)c(F)c(F)c2F)C3C)n1 (racemic) [Compound 31, (8-methyl-3-(3-methyl-1,2,4-thiadiazol-5-yl)-5,6-dihydro-[1,2,4]triazolo[4,3-a]pyrazin-7(8H)-yl)(2,3,4,5-tetrafluorophenyl)methanone]
> 30	25	> 30	0.044	0.059	0.059	Cc1nsc(-c2nnc3n2CCN(C(=O)c2ccc(F)c(F)c2)C3C)n1 (racemic) [Compound 32]
> 30	29	> 30	0.12	0.089	0.089	Cc1nsc(-c2nnc3n2CCN(C(=O)c2ccc(F)c(F)c2F)C3C)n1 (racemic) [Compound 33, (8-methyl-3-(3-methyl-1,2,4-thiadiazol-5-yl)-5,6-dihydro-[1,2,4]triazolo[4,3-a]pyrazin-7(8H)-yl)(2,3,4-trifluorophenyl)methanone]
> 30	24	> 30	0.062	0.038	0.038	Cc1nsc(-c2nnc3n2CCN(C(=O)c2cc(F)c(F)c(F)c2)C3C)n1 (racemic) [Compound 34, (8-methyl-3-(3-methyl-1,2,4-thiadiazol-5-yl)-5,6-dihydro-[1,2,4]triazolo[4,3-a]pyrazin-7(8H)-yl)(3,4,5-trifluorophenyl)methanone]
> 30	52	30	0.054	0.073	0.073	Cc1nsc(-c2nnc3n2CCN(C(=O)c2ccc(F)c(Cl)c2)C3C)n1 (racemic) [Compound 35, (3-chloro-4-fluorophenyl)(8-methyl-3-(3-methyl-1,2,4-thiadiazol-5-yl)-5,6-dihydro-[1,2,4]triazolo[4,3-a]pyrazin-7(8H)-yl)methanone]
> 30	60	36	0.058	0.043	0.043	Cc1nsc(-c2nnc3n2CCN(C(=O)c2ccc(Cl)c(F)c2)C3C)n1 (racemic) [Compound 36, (4-chloro-3-fluorophenyl)(8-methyl-3-(3-methyl-1,2,4-thiadiazol-5-yl)-5,6-dihydro-[1,2,4]triazolo[4,3-a]pyrazin-7(8H)-yl)methanone]
32	–	> 30	0.052	0.041	0.041	Cc1nsc(-c2nnc3n2CCN(C(=O)c2ccc(Cl)cc2)C3C)n1 (racemic) [Compound 37, (4-chlorophenyl)(8-methyl-3-(3-methyl-1,2,4-thiadiazol-5-yl)-5,6-dihydro-[1,2,4]triazolo[4,3-a]pyrazin-7(8H)-yl)methanone]
21	76	28	0.034	0.026	0.026	Cc1nsc(-c2nnc3n2CCN(C(=O)c2ccc(Cl)c(Cl)c2)C3C)n1 (racemic) [Compound 38, (3,4-dichlorophenyl)(8-methyl-3-(3-methyl-1,2,4-thiadiazol-5-yl)-5,6-dihydro-[1,2,4]triazolo[4,3-a]pyrazin-7(8H)-yl)methanone]
> 30	43	> 30	0.032	0.028	0.028	CCc1nsc(-c2nnc3n2CCN(C(=O)c2ccc(F)cc2)C3C)n1 (racemic) [Compound 39, (3-(3-ethyl-1,2,4-thiadiazol-5-yl)-8-methyl-5,6-dihydro-[1,2,4]triazolo[4,3-a]pyrazin-7(8H)-yl)(4-fluorophenyl)methanone]
> 30	24	> 30	0.13	0.083	0.083	CCc1noc(-c2nnc3n2CCN(C(=O)c2ccc(F)cc2)C3C)n1 (racemic) [Compound 40, (3-(3-ethyl-1,2,4-oxadiazol-5-yl)-8-methyl-5,6-dihydro-[1,2,4]triazolo[4,3-a]pyrazin-7(8H)-yl)(4-fluorophenyl)methanone]
> 30	–	> 30	0.032	0.019	0.019	Cc1nsc(-c2nnc3n2CCN(C(=O)c2ccc(Cl)cc2)[C@@H]3C)n1 [Compound 3, (R)-(4-chlorophenyl)(8-methyl-3-(3-methyl-1,2,4-thiadiazol-5-yl)-5,6-dihydro-[1,2,4]triazolo[4,3-a]pyrazin-7(8H)-yl)methanone]
22	–	> 30	0.073	0.032	0.032	Cc1nsc(-c2nnc3n2CCN(C(=O)c2ccc(F)cc2)[C@@H]3CCO)n1 [Compound 11, (R)-(4-fluorophenyl)(8-(2-hydroxyethyl)-3-(3-methyl-1,2,4-thiadiazol-5-yl)-5,6-dihydro-[1,2,4]triazolo[4,3-a]pyrazin-7(8H)-yl)methanone]
–	24	–	–	–	–	COc1cccc(C(=O)N2CCn3c(-c4nc(C)ns4)nnc3[C@H]2C)c1 [Compound 27, (R)-(3-methoxyphenyl)(8-methyl-3-(3-methyl-1,2,4-thiadiazol-5-yl)-5,6-dihydro-[1,2,4]triazolo[4,3-a]pyrazin-7(8H)-yl)methanone]
